Measurements from patent US6369094B1, “Polymorphic salt” (Pfizer Inc., priority 1999, dated 2002).
≈ marks a conversion by molar mass, not a printed value. Counter-ions that a name gives are not always drawn.

How the values were obtained:
[1] = assay type: physicochemical; conditions: pH 6
[2] = Compression studies in an IR bench press; assay type: physicochemical; conditions: 5 tonnes for 1 minute, 13 mm punch and die set
[3] = Hygroscopicity study: moisture sorption by Dynamic Vapour Sorption (DVS); assay type: physicochemical; conditions: 0 to 75% RH, 30° C.
Experimental: The moisture sorptions of the three known polymorphs (α-form, β-form and present invention) of the hemisulphate of 3-(N-methyl-2(R)-pyrrolidinylmethyl)-5-(2-phenylsulphonylethyl)-1H-indole were determined using a Dynamic Vapour Sorption (DVS) Automated Sorption Analyser Model DVS-1 manufactured by Surface Measurements Systems Ltd, UK. Each polymorph was analysed by accurately weighing approximately 25 mg into the sample pan which was then exposed to humidities in the range 0 to 75% RH. The analysis temperature was 30° C. with a nitrogen flow rate of 200 cm^3 min^−1.

[4] = Stability study: polymorphic form re-examined by PXRD and DSC; assay type: physicochemical; conditions: stored for seven months under ambient conditions
[5] = as described in European Patent 0776323; cited from earlier work
[6] = listed as hemisulphate polymorph of the present invention

| SMILES | solubility [1] [mg/mL] | colour change and punch filming upon compression [2] | colour change and punch filming upon compression [2, 6] | hygroscopicity (moisture sorption) [3] | hygroscopicity (moisture sorption) [3, 6] | polymorphic stability (PXRD and DSC) [4] | polymorphic stability (PXRD and DSC) [4, 6] | colour change and punch filming during tabletting [5] | hygroscopicity [5] | polymorphic stability [5] |
| --- | --- | --- | --- | --- | --- | --- | --- | --- | --- | --- |
| CN1CCC[C@@H]1Cc1c[nH]c2ccc(CCS(=O)(=O)c3ccccc3)cc12 [hydrobromide, 3-(N-methyl-2(R)-pyrrolidinylmethyl)-5-(2-phenylsulphonylethyl)-1H-indole, reference compound] | 2.90 | – | – | – | – | – | – | – | – | – |
| CN1CCC[C@@H]1Cc1c[nH]c2ccc(CCS(=O)(=O)c3ccccc3)cc12 [polymorph of the invention, 3-(N-methyl-2(R)-pyrrolidinylmethyl)-5-(2-phenylsulphonylethyl)-1H-indole] | 478 (≈ 1250 mM) | no significant colour change and no evidence of punch filming | no significant colour change or punch filming | markedly less hygroscopic than either the α- or β-form | negligible hygroscopicity | totally unchanged | no change in its polymorphic form | – | – | – |
| CN1CCC[C@@H]1Cc1c[nH]c2ccc(CCS(=O)(=O)c3ccccc3)cc12 [α-polymorph, 3-(N-methyl-2(R)-pyrrolidinylmethyl)-5-(2-phenylsulphonylethyl)-1H-indole] | – | – | – | – | – | – | – | giving rise to colour change and punch filming | hygroscopic | polymorphically unstable |
